Experimental findings from ChEMBL document CHEMBL3217587, “The discovery of N-1 substituted 2-aminobenzimidazoles as zinc-dependent S. aureus biofilm inhibitors” (Medchemcomm, 2012) are described below.

Series [1] deals with Staphylococcus aureus. Kind of series: Antimicrobial activity against methicillin-resistant Staphylococcus aureus ATCC 43300 assessed as inhibition of biofilm formation at 8 uM after 24 hrs by crystal violet staining-based microscopy in presence of Fe2+ ion. It is filed as functional, organism-based.
The subject of series [2] is Staphylococcus aureus. Kind of series: Antimicrobial activity against methicillin-resistant Staphylococcus aureus ATCC BAA-1753 after 16 hrs by broth microdilution method. It is filed as functional. The note with it: ATCC BAA-1753, 16 h. A general note: In broth dilution the organism is exposed to a series of concentrations in liquid medium.
The subject of series [3] is Staphylococcus aureus. Kind of series: Toxicity in methicillin-resistant Staphylococcus aureus ATCC BAA-44 assessed as inhibition of planktonic cell growth at IC50 after 2 to 24 hrs by spectrophotometry. It counts as organism-based.
Series [4] deals with Staphylococcus aureus. Kind of series: Antimicrobial activity against methicillin-resistant Staphylococcus aureus ATCC 33591 after 16 hrs by broth microdilution method. It is filed as functional. The settings on record: ATCC 33591, 16 h.
Series [5] relates to Staphylococcus aureus. Description: Antimicrobial activity against methicillin-resistant Staphylococcus aureus ATCC BAA-44 assessed as inhibition of biofilm formation after 24 hrs by crystal violet staining-based microscopy. It counts as functional, organism-based. The settings on record: ATCC BAA-44, 24 h.
For series [6], the system named is Staphylococcus aureus. Kind of series: Antimicrobial activity against methicillin-resistant Staphylococcus aureus ATCC 43300 assessed as inhibition of biofilm formation at 8 uM after 24 hrs by crystal violet staining-based microscopy in presence of 200 uM Zn2+ ion. It counts as functional.
Series [7] has as its system Staphylococcus aureus. Kind of series: Antimicrobial activity against methicillin-resistant Staphylococcus aureus ATCC 43300 assessed as inhibition of biofilm formation at 8 uM after 24 hrs by crystal violet staining-based microscopy in presence of Mg2+ ion. It is filed as functional, organism-based.
Series [8] concerns Staphylococcus aureus. Kind of series: Antimicrobial activity against methicillin-resistant Staphylococcus aureus ATCC 43300 assessed as inhibition of biofilm formation at 8 uM after 24 hrs by crystal violet staining-based microscopy in presence of Ca2+ ion. It is filed as functional, organism-based.
Series [9] deals with Staphylococcus aureus. Kind of series: Antimicrobial activity against methicillin-resistant Staphylococcus aureus ATCC 43300 after 16 hrs by broth microdilution method. It is filed as functional. The settings on record: ATCC 43300, 16 h.
Series [10] concerns Staphylococcus aureus. Description: Antimicrobial activity against methicillin-resistant Staphylococcus aureus ATCC 43300 assessed as inhibition of biofilm formation at 8 uM after 24 hrs by crystal violet staining-based microscopy in presence of < 50 uM Zn2+ ion. It counts as functional.
Series [11] deals with Staphylococcus aureus. Description: Antimicrobial activity against methicillin-resistant Staphylococcus aureus ATCC BAA-1685 after 16 hrs by broth microdilution method. The settings on record: ATCC BAA-1685, 16 h. It is filed as functional.
Series [12] relates to Staphylococcus aureus. Description: Antimicrobial activity against methicillin-resistant Staphylococcus aureus ATCC BAA-1556 after 16 hrs by broth microdilution method. The settings on record: ATCC BAA-1556, 16 h. It is filed as functional.
For series [13], the system named is Staphylococcus aureus. Description: Antimicrobial activity against methicillin-resistant Staphylococcus aureus ATCC 43300 assessed as inhibition of biofilm formation at 8 uM after 24 hrs by crystal violet staining-based microscopy in presence of > 50 uM Zn2+ ion. It is filed as functional, organism-based.
Series [14] deals with Staphylococcus aureus. Description: Antimicrobial activity against methicillin-resistant Staphylococcus aureus ATCC BAA-44 after 16 hrs by broth microdilution method. It counts as functional. The settings on record: ATCC BAA-44, 16 h.
Series [15] concerns Pseudomonas aeruginosa. Kind of series: Antimicrobial activity against Pseudomonas aeruginosa PA14 after 16 hrs by broth microdilution method. It is filed as functional. The note with it: PA14, 16 h.
Series [16] concerns Staphylococcus aureus. Kind of series: Toxicity in methicillin-resistant Staphylococcus aureus ATCC 43300 assessed as inhibition of planktonic cell growth at IC50 after 2 to 24 hrs by spectrophotometry. It is filed as organism-based.
Series [17] relates to Staphylococcus aureus. Kind of series: Antimicrobial activity against methicillin-susceptible Staphylococcus aureus ATCC 29213 after 16 hrs by broth microdilution method. It is filed as functional. The note with it: ATCC 29213, 16 h.
Series [18] concerns Staphylococcus aureus. Description: Antimicrobial activity against methicillin-resistant Staphylococcus aureus ATCC 43300 assessed as inhibition of biofilm formation at 8 uM after 24 hrs by crystal violet staining-based microscopy in presence of Mn2+ ion. It is filed as functional, organism-based.
Series [19] relates to Staphylococcus aureus. Kind of series: Antibiofilm activity against methicillin-resistant Staphylococcus aureus ATCC 43300 assessed as biofilm dispersal at 20 uM after 24 hrs by crystal violet staining-based microscopy. It is filed as functional, organism-based.
The test system of series [20] is Acinetobacter baumannii. Kind of series: Antimicrobial activity against multidrug-resistant Acinetobacter baumannii ATCC BAA-1605 after 16 hrs by broth microdilution method. It is filed as functional. The settings on record: ATCC BAA-1605, 16 h.
The subject of series [21] is Staphylococcus aureus. Description: Antimicrobial activity against methicillin-resistant Staphylococcus aureus ATCC 700789 after 16 hrs by broth microdilution method. It counts as functional. The settings on record: ATCC 700789, 16 h.
Series [22] relates to Staphylococcus aureus. Kind of series: Antimicrobial activity against methicillin-resistant Staphylococcus aureus ATCC 43300 assessed as inhibition of biofilm formation at 8 uM after 24 hrs by crystal violet staining-based microscopy in presence of Cu2+ ion. It is filed as functional, organism-based.
Series [23] concerns Staphylococcus aureus. Description: Antimicrobial activity against methicillin-resistant Staphylococcus aureus ATCC 43300 assessed as inhibition of biofilm formation after 24 hrs by crystal violet staining-based microscopy. It is filed as functional, organism-based. The settings on record: ATCC 43300, 24 h.
Series [24] concerns Staphylococcus aureus. Kind of series: Antimicrobial activity against methicillin-resistant Staphylococcus aureus ATCC BAA-811 after 16 hrs by broth microdilution method. The settings on record: ATCC BAA-811, 16 h. It counts as functional.

The source made the active and inactive calls. The calls are words filed in the database; no cut-off is given here.

As for `CCCCCc1ccc(C(=O)Nc2ccc3c(c2)nc(N)n3CCc2ccccc2)cc1.Cl`, the inhibition entry in [1], in series [7], in series [8], in series [18] and in series [22] was “Active” in each case. Besides, the minimum inhibitory concentration (MIC) (usually the lowest concentration found to suppress growth) in series [2] worked out at 8 µg/mL; in series [4], 8 µg/mL; in series [9] it was 8 µg/mL; in series [11], 8 µg/mL; in series [12], 8 µg/mL; in series [14] it was 16 µg/mL. For the same molecule, the MIC in [15] is above 64 µg/mL; in series [17] it was 8 µg/mL; in series [20], above 64 µg/mL; in [21] it was 16 µg/mL; in series [24] it was 8 µg/mL. In addition, the Activity result in series [3] and in series [16] was “Non-toxic” in each case. The half-inhibitory concentration (IC50) (as a rule, the concentration at which inhibition is half-maximal) is 6 µM in series [5] and 4.7 µM in series [23]. For the same molecule, the entries for the “inhibition (INH)” value in [6] and in series [10] were 10% and 70%, respectively. In addition, in series [13], the inhibition result was “inactive”. Moreover, the outcome in [19] was inactive.
